From patent US20090197893A1 (Bristol-Myers Squibb Company, priority 2005, published 2009)
Like-named read-outs stand apart in the source and are kept apart here.

How the values were obtained:
[1] = test system: wild-type BCR-ABL; conditions: cited from earlier work
[2] = test system: imatinib-resistant BCR-ABL mutants; conditions: cited from earlier work
[3] = Plasma pharmacokinetics in patients; assay type: in vivo, human; conditions: T315I patients; FIG. 2b
[4] = target: p-glycoprotein (Homo sapiens, UniProt P08183); conditions: cited from earlier work
[5] = test system: patients with advanced CML or Ph+ ALL with imatinib resistance/intolerance; assay: Dasatinib dose escalation clinical trial: hematologic response; conditions: for Hematologic response: CHR / Hematologic response: Major HR / Hematologic response: NEL / Hematologic response: Minor HR: patients n (%); for patients who responded: p=0.049
[6] = test system: patients with advanced CML or Ph+ ALL with imatinib resistance/intolerance; assay: Dasatinib dose escalation clinical trial: cytogenetic response; conditions: for Cytogenetic response: CCyR / Cytogenetic response: Major CyR / Cytogenetic response: Minimal CyR / Cytogenetic response: Overall CyR / Cytogenetic response: PCyR / Cytogenetic response: Minor CyR: patients n (%)
[7] = test system: CML patients; conditions: cited from earlier work; for patients who developed resistance to imatinib: 4 years of follow-up
[8] = AP (N = 11), regardless of relationship to treatment, patients n (%)
[9] = AP-CML (N = 11), patients n (%)
[10] = LBC/ALL (N = 10), patients n (%)
[11] = LBC/ALL (N = 10), regardless of relationship to treatment, patients n (%)
[12] = LBC/Ph+ ALL (N = 10), patients n (%)
[13] = MBC N = (23), regardless of relationship to treatment, patients n (%)

Sequence of p-glycoprotein (P08183 whole entry): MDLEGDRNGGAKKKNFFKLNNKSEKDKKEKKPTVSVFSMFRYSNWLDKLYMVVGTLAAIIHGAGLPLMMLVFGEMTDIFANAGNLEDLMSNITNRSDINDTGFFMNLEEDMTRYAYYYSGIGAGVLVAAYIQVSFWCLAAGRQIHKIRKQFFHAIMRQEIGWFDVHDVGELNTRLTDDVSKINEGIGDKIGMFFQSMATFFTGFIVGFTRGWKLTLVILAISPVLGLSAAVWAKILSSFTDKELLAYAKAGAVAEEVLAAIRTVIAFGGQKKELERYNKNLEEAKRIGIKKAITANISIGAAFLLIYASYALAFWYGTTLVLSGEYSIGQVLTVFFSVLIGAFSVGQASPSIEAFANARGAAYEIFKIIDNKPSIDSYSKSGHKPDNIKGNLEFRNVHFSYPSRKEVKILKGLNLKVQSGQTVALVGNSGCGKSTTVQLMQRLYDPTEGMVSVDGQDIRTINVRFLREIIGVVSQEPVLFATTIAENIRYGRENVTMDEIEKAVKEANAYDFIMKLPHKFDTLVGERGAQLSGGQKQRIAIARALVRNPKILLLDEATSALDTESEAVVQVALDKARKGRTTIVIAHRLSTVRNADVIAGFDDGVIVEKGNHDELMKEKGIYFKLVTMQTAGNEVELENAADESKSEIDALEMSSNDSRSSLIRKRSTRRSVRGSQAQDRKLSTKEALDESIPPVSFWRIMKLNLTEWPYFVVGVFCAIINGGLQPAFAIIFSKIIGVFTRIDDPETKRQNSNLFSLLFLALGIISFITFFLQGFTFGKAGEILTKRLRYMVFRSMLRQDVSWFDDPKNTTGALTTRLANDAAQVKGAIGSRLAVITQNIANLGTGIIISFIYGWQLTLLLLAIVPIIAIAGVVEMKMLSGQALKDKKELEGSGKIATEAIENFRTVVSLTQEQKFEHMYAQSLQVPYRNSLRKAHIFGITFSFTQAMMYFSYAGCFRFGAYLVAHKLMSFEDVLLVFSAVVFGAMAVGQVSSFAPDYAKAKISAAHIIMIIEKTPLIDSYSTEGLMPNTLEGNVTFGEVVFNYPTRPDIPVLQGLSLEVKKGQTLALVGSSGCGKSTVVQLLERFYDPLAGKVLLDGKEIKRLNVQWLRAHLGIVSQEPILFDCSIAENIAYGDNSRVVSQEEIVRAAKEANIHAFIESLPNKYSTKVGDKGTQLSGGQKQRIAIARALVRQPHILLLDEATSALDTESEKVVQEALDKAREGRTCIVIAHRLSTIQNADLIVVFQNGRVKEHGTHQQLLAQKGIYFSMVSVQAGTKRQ

## Cc1cn(-c2cc(NC(=O)c3ccc(C)c(Nc4nccc(-c5cccnc5)n4)c3)cc(C(F)(F)F)c2)cn1 [AMN107]
[1]
  IC50: […]
[2]
  imatinib-resistant BCR-ABL mutants against which significantly active: 32/33

## Cc1nc(Nc2ncc(C(=O)Nc3c(C)cccc3Cl)s2)cc(N2CCN(CCO)CC2)n1 [dasatinib, N-(2-chloro-6-methylphenyl)-2-[[6-[4-(2-hydroxyethyl)-1-piperazinyl]-2-methyl-4-pyrimidinyl]amino]-5-thiazolecarboxamide]
[3]
  serum levels: adequate
35-120 mg BID cohorts
  maximum tolerated dose: not defined
AP (N = 11), patients n (%)
  Diarrhea, Grade 1-4: 5 (45)
  Dyspnea/Pulmonary edema, Grade 1-4: 3 (27)
  Flushing, Grade 1-4: 3 (27)
  Generalized edema, Grade 1-4: 1 (9)
  Headache, Grade 1-4: 3 (27)
  Nausea, Grade 1-4: 1 (9)
  On-Study Myelosuppression: ANC, Grade 3: 3 (27)
  On-Study Myelosuppression: Platelets, Grade 3: 3 (27)
  Periorbital edema, Grade 1-4: 1 (9)
  Peripheral edema, Grade 1-4: 3 (27)
  Rash, Grade 1-4: 5 (45)
  Vomiting, Grade 1-4: 1 (9)
[8]
  Elevated ALT, Grade 1-4: 8 (73)
  Elevated ALT, Grade 3-4: 1 (9)
  Elevated AST, Grade 1-4: 7 (64)
  Elevated Total bilirubin, Grade 1-4: 2 (18)
  Elevated creatinine, Grade 1-4: 2 (18)
  Hypocalcemia, Grade 1-4: 8 (73)
  Hypocalcemia, Grade 3-4: 2 (18)
  Hypomagnesemia, Grade 1-4: 5 (45)
AP, 9/11 patients
  Grade 3 or 4 neutropenia on treatment: 82%
  grade 3/4 thrombocytopenia: 82%
[9]
  On-Study Myelosuppression: ANC, Grade 4: 6 (55)
  On-Study Myelosuppression: Platelets, Grade 4: 6 (55)
[10]
  Diarrhea, Grade 1-4: 2 (20)
  Dyspnea/Pulmonary edema, Grade 1-4: 1 (10)
  Generalized edema, Grade 1-4: 1 (10)
  Nausea, Grade 1-4: 1 (10)
  Periorbital edema, Grade 1-4: 1 (10)
  Peripheral edema, Grade 1-4: 1 (10)
  Pleural effusion, Grade 1-4: 2 (20)
  Rash, Grade 1-4: 1 (10)
  Vomiting, Grade 1-4: 1 (10)
[11]
  Elevated ALT, Grade 1-4: 7 (70)
  Elevated AST, Grade 1-4: 9 (90)
  Elevated Total bilirubin, Grade 1-4: 5 (50)
  Elevated creatinine, Grade 1-4: 6 (60)
  Hypocalcemia, Grade 1-4: 7 (70)
  Hypocalcemia, Grade 3-4: 3 (30)
  Hypomagnesemia, Grade 1-4: 3 (30)
[12]
  On-Study Myelosuppression: ANC, Grade 3: 2 (20)
  On-Study Myelosuppression: ANC, Grade 4: 6 (60)
  On-Study Myelosuppression: Platelets, Grade 3: 0
  On-Study Myelosuppression: Platelets, Grade 4: 7 (70)
LBC/Ph+ ALL, 7/10 patients
  grade 3/4 thrombocytopenia: 70%
LBC/Ph+ ALL, 8/10 patients
  Grade 3 or 4 neutropenia on treatment: 80%
MBC (N = 23), patients n (%)
  Diarrhea, Grade 1-4: 5 (22)
  Diarrhea, Grade 3-4: 1 (4)
  Dyspnea/Pulmonary edema, Grade 1-4: 2 (9)
  Dyspnea/Pulmonary edema, Grade 3-4: 2 (9)
  Flushing, Grade 1-4: 1 (4)
  Headache, Grade 1-4: 1 (4)
  Nausea, Grade 1-4: 4 (17)
  On-Study Myelosuppression: ANC, Grade 3: 2 (9)
  On-Study Myelosuppression: ANC, Grade 4: 20 (87)
  On-Study Myelosuppression: Platelets, Grade 3: 2 (9)
  On-Study Myelosuppression: Platelets, Grade 4: 17 (74)
  Pericardial effusion, Grade 1-4: 3 (13)
  Pericardial effusion, Grade 3-4: 2 (9)
  Periorbital edema, Grade 1-4: 2 (9)
  Peripheral edema, Grade 1-4: 5 (22)
  Pleural effusion, Grade 1-4: 8 (35)
  Pleural effusion, Grade 3-4: 3 (13)
  Rash, Grade 1-4: 2 (9)
  Rectal hemorrhage, Grade 1-4: 2 (9)
  Rectal hemorrhage, Grade 3-4: 2 (9)
  Tumor lysis syndrome, Grade 1-4: 2 (9)
  Tumor lysis syndrome, Grade 3-4: 2 (9)
  Vomiting, Grade 1-4: 2 (9)
[13]
  Elevated ALT, Grade 1-4: 13 (57)
  Elevated AST, Grade 1-4: 13 (57)
  Elevated Total bilirubin, Grade 1-4: 10 (43)
  Elevated Total bilirubin, Grade 3-4: 4 (17)
  Elevated creatinine, Grade 1-4: 12 (52)
  Hypocalcemia, Grade 1-4: 21 (91)
  Hypocalcemia, Grade 3-4: 6 (26)
  Hypomagnesemia, Grade 3-4: 1 (4)
MBC, 19/23 patients
  grade 3/4 thrombocytopenia: 83%
MBC, 22/23 patients
  Grade 3 or 4 neutropenia on treatment: 96%
Advanced phase CML patients
  severe (grade 4) myelosuppression: about 70%
All patients
  patients removed from the study due to a drug-related toxicity: no patient
All patients, 9/44
  Grade 3/4 non-hematologic adverse events: 20%
Often in the absence of other edema
  non-malignant pleural effusions: 10 patients
[4]
  substrate for p-glycoprotein: not a substrate
[5]; AP CML n = 11
  Hematologic response: CHR: 5 (45)
  Hematologic response: Major HR: 9 (81)
  Hematologic response: NEL: 4 (36)
[5]; AP cohort, 9/11, median of 8 months (range 2-13 months)
  patients who achieved a major HR remain on study: 81%
[5]; AP patients, 6
  major HR confirmed after 4 weeks: 55%
[5]; AP patients, 9/11
  major HR: 81%
[5]; LBC-CML/ALL n = 10
  Hematologic response: CHR: 7 (70)
  Hematologic response: Major HR: 8 (80)
  Hematologic response: NEL: 1 (10)
[5]; LBC/Ph+ ALL, 5
  major HR confirmed after 4 weeks: 50%
[5]; LBC/Ph+ ALL, 8/10
  major HR rate: 80%
[5]; MBC patients, 7
  major HR confirmed after 4 weeks: 30%
[5]; MBC patients, 14/23
  major HR: 61%
[5]; MBC, 6 of 23, follow-up ranging 5-12 months
  patients who remain on the study: 26%
[5]; MBC-CML n = 23
  Hematologic response: CHR: 8 (35)
  Hematologic response: Major HR: 14 (61)
  Hematologic response: Minor HR: 4 (17)
  Hematologic response: NEL: 6 (26)
[5]; Nine of the 44 patients
  patients who failed to meet the criteria for major or minor hematologic response: 20%
[5]; Total N = 44
  Hematologic response: CHR: 20 (45)
  Hematologic response: Major HR: 31 (70)
  Hematologic response: Minor HR: 4 (9)
  Hematologic response: NEL: 11 (25)
[5]; complex karyotypes, 17 of 25 patients
  patients who responded: 68%
[5]; lymphoid blast crisis or Ph+ ALL
  relapsed within 6 months: all but one patient
[5]; of the 8 Myeloid BC patients who achieved CHR
  patients with durable responses for 10 months or longer: 3
[5]; simple Ph karyotypes, 17 of 18 patients
  patients who responded: 94%
[5]; total patient population, 20/44
  CHR: 45%
[5]; total patient population, 31/44
  major HR: 70%
[6]; AP CML n = 11
  Cytogenetic response: CCyR: 2 (18)
  Cytogenetic response: Major CyR: 3 (27)
  Cytogenetic response: Minimal CyR: 1 (9)
  Cytogenetic response: Overall CyR: 4 (36)
  Cytogenetic response: PCyR: 1 (9)
[6]; AP patients, 3/11
  Major cytogenetic responses: 27%
[6]; LBC-CML/ALL n = 10
  Cytogenetic response: CCyR: 3 (30)
  Cytogenetic response: Major CyR: 8 (80)
  Cytogenetic response: Minor CyR: 1 (10)
  Cytogenetic response: Overall CyR: 9 (90)
  Cytogenetic response: PCyR: 5 (50)
[6]; LBC/Ph+ ALL patients, 8/10
  MCyR rate: 80%
[6]; LBC/Ph+ ALL patients, 9/10
  overall cytogenetic response rate: 90%
[6]; MBC patients, 12/23
  Cytogenetic responses: 52%
[6]; MBC-CML n = 23
  Cytogenetic response: CCyR: 6 (26)
  Cytogenetic response: Major CyR: 8 (35)
  Cytogenetic response: Minimal CyR: 2 (9)
  Cytogenetic response: Minor CyR: 2 (9)
  Cytogenetic response: Overall CyR: 12 (52)
  Cytogenetic response: PCyR: 2 (9)
[6]; Total N = 44
  Cytogenetic response: CCyR: 11 (25)
  Cytogenetic response: Major CyR: 19 (43)
  Cytogenetic response: Minimal CyR: 3 (7)
  Cytogenetic response: Minor CyR: 3 (7)
  Cytogenetic response: Overall CyR: 25 (57)
  Cytogenetic response: PCyR: 8 (18)
[6]; total patient population, 11/44
  CCyR: 25%
[6]; total patient population, 19/44
  major CyR (CCyR plus PCyR): 43%
[6]; total patient population, 25/44
  CyR: 57%

## Cc1ccc(NC(=O)c2ccc(CN3CCN(C)CC3)cc2)cc1Nc1nccc(-c2cccnc2)n1 [imatinib]
[7]; AP CML patients
  patients who developed resistance to imatinib: 75%
[7]; BC patients
  patients who developed resistance to imatinib: 95%
[7]; blastic phase
  estimated 2-year incidence of resistance: 80%
[7]; chronic phase post-interferon-α failure
  estimated 2-year incidence of resistance: 10%
